Legend:
Type in all cases: cell-based
[1] = system: H358 (EGFR wild-type) NSCLC cells; assay: cell viability assay, H358; conditions: Homo sapiens, NCI-H358
Text: (§1) Table 1 summarizes the IC50 values of five different cell lines treated with TMS.

[2] = system: H1975 cells; assay: cell morphology, flow cytometry and relative cell viability, TMS with/without JNK inhibitor, H1975; conditions: TMS alone, groups: control, FIG. 6
[3] = system: EGFR PY1173; assay: immunoblot analysis of EGFR PY1173, A549 cell lysate; conditions: A549 cells
Protocol: (§2) Moreover, the inhibition of PY1173 activation happens as early as in 1 hour after TMS treatment.

[4] = system: mammalian target of rapamycin (mTOR); assay: proteomic analysis of apoptosis markers; conditions: proteomics, gefitinib-resistant NSCLC cells, FIG. 3
Text: FIG. 3 is a schematic diagram showing the proteomic analysis result of TMS on different markers involved in apoptosis of gefitinib-resistant non-small-cell lung cancer cells.

[5] = system: EGFR PY1173; assay: immunoblot analysis of EGFR PY1173, H1975 cell lysate
Protocol: as §2

[6] = system: BEAS-2B (normal epithelial cells); assay: cell viability assay, BEAS-2B; conditions: Homo sapiens
Text: as §1

[7] = system: A549 (EGFR wild-type) NSCLC cells; assay: cell viability assay, A549; conditions: Homo sapiens
Text: as §1

[8] = system: H820 (EGFR double mutation) gefitinib-resistant NSCLC cells; assay: cell viability assay, H820; conditions: NCI-H820
Text: as §1

[9] = system: H1975 cells; assay: relative cell viability, TMS with/without compound c, H1975
[10] = system: H1975 cells; assay: cell morphology and flow cytometry (apoptosis), H1975; conditions: gefitinib-resistant NSCLC cell lines (H1975), FIG. 2
[11] = system: H1975 (EGFR double mutation) gefitinib-resistant NSCLC cells; assay: cell viability assay, H1975
Text: as §1

SMILES	IC50 [1] [nM]	apoptosis induction / relative cell viability among four treatment groups [2]	inhibitory effect on EGFR (PY1173) [3]	suppression of EGFR PY1173 ([3]; 10-time higher concentration of TMS)	effect on mTOR [4]	time to inhibition of PY1173 activation after TMS treatment ([5]; H1975, fixed concentration of TMS) [h]	activation of EGFR PY1173 ([5]; TMS at 40, 60 and 80 nM, gefitinib-resistant NSCLC cells (H1975))	IC50 [6] [nM]	IC50 [7] [nM]	IC50 [8] [nM]	apoptosis induction / relative cell viability among four treatment groups ([9]; TMS alone (40 nM), groups: control, compound c, TMS, FIG. 4)	induction of apoptosis [10]	selectivity for gefitinib-resistant NSCLC cells over normal and EGFR wild-type cells ([11]; H1975 and H820 versus BEAS-2B, A549, H358)	IC50 ([11]; Homo sapiens, NCI-H1975, H1975 (EGFR double mutation), cell viability) [nM]	effect of compound c on the effect of TMS ([9]; H1975, FIG. 4)
COc1ccc(/C=C\c2cc(OC)c(OC)c(OC)c2)cc1 [TMS, (Z)3,4,5,4′-tetramethoxystilbene]	> 400	most effective in inducing apoptosis	not detected	no suppression of EGFR PY1173 was observed	significantly inhibited	≤ 1	inhibits the activation of EGFR PY1173	> 400	> 400	136 ± 35.9	most effective in inducing apoptosis	inducing apoptosis	selectivity on gefitinib-resistant NSCLC cells	57.2 ± 13.5	–
c1cc(-c2cnn3cc(-c4ccc(OCCN5CCCCC5)cc4)cnc23)ccn1 [compound c, reference compound]	–	–	–	–	–	–	–	–	–	–	–	–	–	–	counteracts the effect of TMS

From US9597299B2, “Method for treating gefitinib-resistant non-small-cell lung cancer” (Macau University of Science and Technology, priority 2014, dated 2017)
